Results on two compounds are retold here after patent US5057146A (priority 1986, dated 1991).

The subject of test [1] is Diabrotica balteata (rootworm larvae). The experiment in a line: pest mortality, Diabrotica balteata, residual test. It is filed as in vivo. To be noted: 500 ppm, filter paper/maize seed, duration 3 days. The protocol: (§1) The activity of each compound was determined using a variety of insect mites and nematode pests. The compound was used in the form of liquid preparations containing from 100 to 500 parts per million (ppm) by weight of the compound. The preparations were made by dissolving the compound in acetone and diluting the solutions with water containing 0.1% by weight of a wetting agent sold under the trade name "SYNPERONIC" NX until the liquid preparations contained the required concentration of the product. "SYNPERONIC" is a Registered Trade Mark.
(§2) The test procedure adopted with regard to each pest was basically the same and comprised supporting a number of the pests on a medium which was usually a host plant or a food stuff on which the pests feed, and treating either or both the pests and the medium with the preparations. The mortality of the pests was then assessed at periods usually varying from one to seven days after the treatment. […]

For test [2], the system named is Cercospora arachidicola. The experiment in a line: foliar fungal disease control, Cercospora arachidicola on peanut. It is filed as in vivo. To be noted: 100 ppm foliar spray plus root drench approx. 40 ppm a.i./dry soil.
For test [3], the system named is Tetranychus uritcae (spider mites and ova). Briefly: pest mortality, Tetranychus uritcae, contact test. The class given is in vivo. The following applies: 500 ppm, French bean leaf, duration 3 days. The protocol:
as §1, §2

Test [4] relates to Musca domestica (houseflies - adults). The experiment in a line: pest mortality, Musca domestica, contact test. The following applies: 500 ppm, cotton wool/sugar, duration 1 day. The class given is in vivo. On the procedure: as §1, §2
Test [5] has as its system Puccinia recondita. Briefly: foliar fungal disease control, Puccinia recondita on wheat. To be noted: 100 ppm foliar spray plus root drench approx. 40 ppm a.i./dry soil. It is filed as in vivo.
Test [6] concerns Pyricularia oryzae. It is filed as in vivo, Pyricularia oryzae (rice). The following applies: 100 ppm foliar spray plus root drench approx. 40 ppm a.i./dry soil.
In test [7] the test system is Erysiphe graminis hordei. The experiment in a line: foliar fungal disease control, Erysiphe graminis hordei on barley. It is filed as in vivo. To be noted: 100 ppm foliar spray plus root drench approx. 40 ppm a.i./dry soil; inoculated 24 hours before treatment.
The test system of test [8] is Plasmopara viticola. Briefly: foliar fungal disease control, Plasmopara viticola on vine. The class given is in vivo. To be noted: 100 ppm foliar spray plus root drench approx. 40 ppm a.i./dry soil.
In test [9] the test system is Chilo partellus (maize stem borers). The experiment in a line: pest mortality, Chilo partellus, residual test. The class given is in vivo. The following applies: 500 ppm, oil seed rape leaf, duration 3 days. On the procedure: as §1, §2
For test [10], the system named is Venturia inaequalis. The experiment in a line: foliar fungal disease control, Venturia inaequalis on apple. The class given is in vivo. The following applies: 100 ppm foliar spray plus root drench approx. 40 ppm a.i./dry soil.

With `CO/C=C(/C(=O)OC)c1ccccc1Oc1ccc(Br)cn1` [Compound 15 (Table I)], the “grading of mortality, DB” value in test [1] is 9 (80-100% mortality). Also, in [2], the “disease control grading, Cercospora arachidicola (peanut)” value is recorded as 3 (trace-5% of disease on untreated plants). The “grading of mortality, TUe” value in [3] is 0 (less than 50% mortality). In addition, the “grading of mortality, MD” value in test [4] is given as 0 (less than 50% mortality). Moreover, the “disease control grading, Puccinia recondita (wheat)” value in [5] was determined as 4. The “disease control grading, Pyricularia oryzae (rice)” value in [6] was 3 (trace-5% of disease on untreated plants). In addition, in test [7], the “disease control grading, Erysiphe graminis hordei (barley)” value is listed as 4. Further, in test [8], the “disease control grading, Plasmopara viticola (vine)” value is recorded as 4.

Turning to `CO/C=C(/C(=O)OC)c1ccccc1Oc1ccc(Cl)cn1` [Compound 14 (Table I), (E)-methyl 2-[2'-(5"-chloropyridin-2"-yloxy)phenyl]-3-methoxyacrylate], the “grading of mortality, DB” value in test [1] is listed as 5 (50-79% mortality). For the same compound, the “disease control grading, Cercospora arachidicola (peanut)” value in test [2] was 4. The “grading of mortality, TUe” value in [3] is listed as 0 (less than 50% mortality). Moreover, the “grading of mortality, MD” value in test [4] is listed as 9 (80-100% mortality). Moreover, the “grading of mortality, CP” value in test [9] was 9 (80-100% mortality). For the same compound, the “disease control grading, Puccinia recondita (wheat)” value in [5] is given as 4. Besides, in [10], the “disease control grading, Venturia inaequalis (apple)” value is given as 2 (6-25% of disease on untreated plants). Moreover, the “disease control grading, Pyricularia oryzae (rice)” value in test [6] is on record as 4. The “disease control grading, Erysiphe graminis hordei (barley)” value in test [7] is recorded as 4. Also, in test [8], the “disease control grading, Plasmopara viticola (vine)” value was 4.
